The values that follow come from PMC9148066, “The Medicinal Halophyte Frankenia laevis L. (Sea Heath) Has In Vitro Antioxidant Activity, α-Glucosidase Inhibition, and Cytotoxicity towards Hepatocarcinoma Cells” (Plants, 2022).

SMILES strings stand for the structures. Marks after values point to notes of the source that are not given here.

A word on the EC50: it is the concentration that produces a half-maximal response.

The nature of one data set: RSA on ABTS radical. Particulars: ABTS 7.4 mM, 6 min. The procedure:
(§1) The absorbance was measured in a microplate reader (Biotek Synergy 4), and the activity was calculated as a percentage of inhibition, relative to a control containing DMSO in place of the sample.
(§2) The extracts were tested on DPPH and ABTS, as described elsewhere. The samples were mixed with radical solutions (DPPH: 120 µM; ABTS: 7.4 mM) in 96-well flat-bottom microtitration plates and were incubated in darkness at RT for 30 and 6 min, respectively. The synthetic antioxidant BHT (E320), used as a preservative in food and cosmetics, was used as a positive control at the same concentrations of the samples. The absorbance was measured at 517 and 734 nm for DPPH and ABTS, respectively.

The next data set is described as follows: RSA on DPPH radical. Particulars: DPPH 120 µM, 30 min. As for the experimental part: as §1, §2
Background: Loss of DPPH colour is used to gauge radical scavenging.

In data set [1] the test system is human lung carcinoma cells (A549). Set-up: method as in PMID 19471192. Particulars: cited from earlier work.
Data set [2] can be described thus: Copper chelating activity (CCA). Particulars: pyrocatechol violet, CuSO4.
Protocol: (§5) The CCA and ICA of the extracts and the positive control (EDTA) were assessed in 96-well microplates according to the methods described in Rodrigues et al. [53]. For CCA, the samples were mixed with 50 mM Na acetate buffer (pH 6), 4 mM pyrocatechol violet, and 50 µg/mL CuSO4 solution. For ICA, the samples were mixed with distilled water and 0.1 mg/mL FeCl2 solution. After 30 min, a 40 mM ferrozine solution was added. The change in absorbance was measured at 632 and 562 nm for CCA and ICA, correspondingly.
The nature of data set [3]: Iron chelating activity (ICA). Particulars: FeCl2, ferrozine.
Protocol: as §5
The subject of data set [4] is HepG2 cells. Particulars: cited from earlier work.
For the next data set, the target named is α-glucosidase. Also on record: method as in doi:10.1016/j.sajb.2020.01.011. Particulars: cited from earlier work.
The subject of data set [5] is HepG2 cells. In words: Cellular viability assay (MTT), HepG2. It is filed as cell-based. Particulars: Homo sapiens, 72 h, read-out: HepG2 cytotoxic activity EC50. The procedure:
(§3) The HepG2 (human hepatocellular carcinoma) and S17 (murine bone marrow stromal) cell lines were maintained in Dulbecco’s modified eagle medium (DMEM) culture medium supplemented with 10% heat-inactivated fetal bovine serum (FBS), 1% L-glutamine (2 mM), and 1% penicillin (50 U/mL)/streptomycin (50 μg/mL) and were maintained at 37 °C in humidified atmosphere with 5% CO2.
(§4) HepG2 and S17 cells were plated in 96-well tissue plates at a density of 5 × 10^3 cells/well and were incubated for 24 h. Then, the extracts were applied at several concentrations (3.125, 6.25, 12.5, 25, 50 and 100 µg/mL) for 72 h. The 3-(4,5-dimethylthiazol-2-yl)-2,5-diphenyltetrazolium bromide (MTT) colorimetric test was used to determine the cellular viability (Biotek Synergy 4), as formerly detailed. […] The selectivity index (SI) was obtained by dividing the EC50 value of non-tumoral cells (S17) by the EC50 of tumoral cells (HepG2).

The nature of data set [6]: Cellular viability assay (MTT), S17. Particulars: mouse, S17 bone marrow stromal cells (non-tumoral), read-out: S17 cytotoxic activity EC50. The data set is classed as cell-based. The procedure: as §3, §4

For the molecule `Cc1cc(C(C)(C)C)c(O)c(C(C)(C)C)c1` [BHT, butylated hydroxytoluene], the “RSA-ABTS EC50” value in the data set “RSA on ABTS radical” was 0.06 ± 0.00 ^a mg/mL. Further, the “RSA-DPPH EC50” value in the data set “RSA on DPPH radical” is recorded as 0.11 ± 0.00 ^a mg/mL.

As to `CC1(C)CCCC2(C)OC(=O)C=C12` (centres unmarked) [Dihydroactinidiolide], the “Cytotoxic effect on A549” value in [1] is recorded as “strong cytotoxic effect”.

On to `O=C(O)CN(CCN(CC(=O)O)CC(=O)O)CC(=O)O` [EDTA, ethylenediamine tetraacetic acid], for which the “CCA EC50” value in data set [2] is 0.17 ± 0.00 ^a mg/mL. Further, in data set [3], the “ICA EC50” value is listed as 0.06 ± 0.00 ^a mg/mL.

`CC1(C)C[C@H](O)C[C@@]2(C)OC(=O)C=C12` [Loliolide]: the “Cytotoxicity against HepG2 cells” value with HepG2 cells [4] was “selective cytotoxicity”. For the same molecule, at α-glucosidase (approx. equivalent of the µM value), the “α-glucosidase EC50” value was “approx. 76 µg/mL”. In addition, the EC50 at α-glucosidase is 388 µM.

For `COc1cc([C@@H]2c3cc4c(cc3[C@@H](O[C@@H]3O[C@@H]5CO[C@@H](C)O[C@H]5[C@H](O)[C@H]3O)[C@H]3COC(=O)[C@H]23)OCO4)cc(OC)c1O` [etoposide], in the data set with HepG2 cells [5], the EC50 was determined as 1.45 ± 0.15 µg/mL. Moreover, the half-maximal effective concentration (EC50) at 72 h in [6] turned out to be 7.86 ± 0.25 µg/mL.

Consider `CC1(C)C[C@H](O)C[C@]2(C)OC(=O)C=C12` [isololiolide, Isololiolide], for which the “Cytotoxicity against HepG2 cells” value in the data set on HepG2 cells [4] is on record as “selective cytotoxicity”.
